pKd: −log10 of the molar value.
Assays:
[1] = biological target: kinases (KINOMEscan panel) (Homo sapiens, UniProt Q99755); parameters: method as in original PKIS2 published data; conditions: Published KINOMEscan; ref original PKIS2 published data; cited from earlier work
[2] = biological target: kinases (KINOMEscan panel) (Homo sapiens, UniProt P78368); parameters: method as in original PKIS2 published data; conditions: kinase CSNK1G2; Published KINOMEscan; ref original PKIS2 published data; cited from earlier work
[3] = biological target: kinases (KINOMEscan panel) (Homo sapiens, UniProt P48729); parameters: method as in original PKIS2 published data; conditions: CSNK1A1; Published KINOMEscan; ref original PKIS2 published data; cited from earlier work
[4] = biological target: T1, kinases (KINOMEscan panel) (Homo sapiens, UniProt Q06418); parameters: method as in original PKIS2 published data; conditions: Published KINOMEscan; ref original PKIS2 published data; cited from earlier work
T1 sequence (Q06418 41-890): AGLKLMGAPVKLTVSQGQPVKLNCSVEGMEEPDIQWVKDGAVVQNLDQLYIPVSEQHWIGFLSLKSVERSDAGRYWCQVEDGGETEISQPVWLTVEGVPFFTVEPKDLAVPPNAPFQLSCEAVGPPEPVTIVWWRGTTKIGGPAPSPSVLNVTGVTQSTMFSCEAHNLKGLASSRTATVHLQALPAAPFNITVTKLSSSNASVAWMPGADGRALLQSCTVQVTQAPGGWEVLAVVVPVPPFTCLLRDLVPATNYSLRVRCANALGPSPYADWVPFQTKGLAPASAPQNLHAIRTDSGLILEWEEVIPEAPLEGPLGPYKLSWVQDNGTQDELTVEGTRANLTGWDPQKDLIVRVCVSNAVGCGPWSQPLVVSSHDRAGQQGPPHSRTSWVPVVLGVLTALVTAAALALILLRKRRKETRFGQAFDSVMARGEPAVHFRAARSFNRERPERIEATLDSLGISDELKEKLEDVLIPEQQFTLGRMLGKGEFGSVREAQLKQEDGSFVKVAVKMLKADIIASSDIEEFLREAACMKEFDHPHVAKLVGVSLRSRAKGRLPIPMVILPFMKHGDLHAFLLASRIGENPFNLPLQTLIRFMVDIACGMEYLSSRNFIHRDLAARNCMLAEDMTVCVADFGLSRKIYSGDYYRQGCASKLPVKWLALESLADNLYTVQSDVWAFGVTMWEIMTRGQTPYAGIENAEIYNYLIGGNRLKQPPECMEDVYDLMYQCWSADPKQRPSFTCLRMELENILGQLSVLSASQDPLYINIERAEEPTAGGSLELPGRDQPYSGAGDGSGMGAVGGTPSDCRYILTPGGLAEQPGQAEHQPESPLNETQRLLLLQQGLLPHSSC

PRKD1 = biological target: T2, PRKD1 (Homo sapiens, UniProt Q15139); test: PRKD1 binding KD (Table S3); conditions: relation sign
T2 sequence (Q15139 1-912): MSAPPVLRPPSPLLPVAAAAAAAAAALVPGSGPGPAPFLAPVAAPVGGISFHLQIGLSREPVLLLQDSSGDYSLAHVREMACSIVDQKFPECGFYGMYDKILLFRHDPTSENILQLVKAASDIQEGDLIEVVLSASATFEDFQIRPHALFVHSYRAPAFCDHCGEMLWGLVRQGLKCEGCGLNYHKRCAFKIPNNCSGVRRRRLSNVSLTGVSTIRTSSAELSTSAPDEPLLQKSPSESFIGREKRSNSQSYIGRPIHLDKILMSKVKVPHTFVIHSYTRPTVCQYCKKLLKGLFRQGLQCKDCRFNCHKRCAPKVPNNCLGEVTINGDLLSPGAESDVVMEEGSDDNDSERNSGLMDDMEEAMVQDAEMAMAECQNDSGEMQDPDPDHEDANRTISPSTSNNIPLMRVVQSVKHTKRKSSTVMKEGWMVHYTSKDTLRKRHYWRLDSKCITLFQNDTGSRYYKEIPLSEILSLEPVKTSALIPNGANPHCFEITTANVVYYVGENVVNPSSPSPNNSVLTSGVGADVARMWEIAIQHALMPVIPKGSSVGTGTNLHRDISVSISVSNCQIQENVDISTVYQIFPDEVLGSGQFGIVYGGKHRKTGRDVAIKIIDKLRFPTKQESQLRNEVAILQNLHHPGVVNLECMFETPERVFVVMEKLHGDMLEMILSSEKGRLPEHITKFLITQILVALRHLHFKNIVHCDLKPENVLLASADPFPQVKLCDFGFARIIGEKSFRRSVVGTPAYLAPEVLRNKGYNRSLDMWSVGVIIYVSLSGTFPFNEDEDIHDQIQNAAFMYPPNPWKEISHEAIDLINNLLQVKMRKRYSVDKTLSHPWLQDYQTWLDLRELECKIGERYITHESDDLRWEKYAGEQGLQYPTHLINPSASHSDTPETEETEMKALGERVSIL
From the text: Supplement KAUP_A_2095834_SM5251.zip/Supplementary Tables R7.xlsx, sheet "Table S3 - Analogues"

[5] = biological target: kinases (KINOMEscan panel) (Homo sapiens, UniProt P42679); assay type: binding
[6] = biological target: kinases (KINOMEscan panel) (Homo sapiens, UniProt O75676); assay type: binding; conditions: NEW KINOMEscan
[7] = biological target: kinases (KINOMEscan panel) (Homo sapiens, UniProt Q32MK0); assay type: binding
[8] = biological target: kinases (KINOMEscan panel) (Homo sapiens, UniProt Q13188); assay type: binding
[9] = biological target: kinases (KINOMEscan panel) (Homo sapiens, UniProt Q9P289); assay type: binding
[10] = biological target: kinases (KINOMEscan panel) (Homo sapiens, UniProt Q05397); assay type: binding
[11] = biological target: kinases (KINOMEscan panel) (Homo sapiens, UniProt Q12852); assay type: binding
[12] = biological target: kinases (KINOMEscan panel) (Homo sapiens, UniProt P45983); assay type: binding
[13] = biological target: kinases (KINOMEscan panel) (Homo sapiens, UniProt Q8TD08); assay type: binding
[14] = biological target: kinases (KINOMEscan panel) (Homo sapiens, UniProt Q8IY84); assay type: binding
Sequence of kinases (KINOMEscan panel) (Homo sapiens, UniProt Q8IY84) (Q8IY84 whole entry): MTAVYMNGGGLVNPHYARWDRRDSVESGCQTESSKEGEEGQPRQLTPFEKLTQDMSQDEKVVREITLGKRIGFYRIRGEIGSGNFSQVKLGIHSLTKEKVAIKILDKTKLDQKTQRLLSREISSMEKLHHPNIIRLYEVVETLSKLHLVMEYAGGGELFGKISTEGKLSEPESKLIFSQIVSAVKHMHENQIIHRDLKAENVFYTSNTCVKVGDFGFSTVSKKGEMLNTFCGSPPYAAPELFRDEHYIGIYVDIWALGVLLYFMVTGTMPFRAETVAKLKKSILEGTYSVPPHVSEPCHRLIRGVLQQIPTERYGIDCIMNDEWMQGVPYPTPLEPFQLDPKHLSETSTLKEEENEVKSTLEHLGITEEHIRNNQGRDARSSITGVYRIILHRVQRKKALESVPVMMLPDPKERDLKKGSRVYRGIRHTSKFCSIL

Sequence of kinases (KINOMEscan panel) (Homo sapiens, UniProt O75676) (O75676 whole entry): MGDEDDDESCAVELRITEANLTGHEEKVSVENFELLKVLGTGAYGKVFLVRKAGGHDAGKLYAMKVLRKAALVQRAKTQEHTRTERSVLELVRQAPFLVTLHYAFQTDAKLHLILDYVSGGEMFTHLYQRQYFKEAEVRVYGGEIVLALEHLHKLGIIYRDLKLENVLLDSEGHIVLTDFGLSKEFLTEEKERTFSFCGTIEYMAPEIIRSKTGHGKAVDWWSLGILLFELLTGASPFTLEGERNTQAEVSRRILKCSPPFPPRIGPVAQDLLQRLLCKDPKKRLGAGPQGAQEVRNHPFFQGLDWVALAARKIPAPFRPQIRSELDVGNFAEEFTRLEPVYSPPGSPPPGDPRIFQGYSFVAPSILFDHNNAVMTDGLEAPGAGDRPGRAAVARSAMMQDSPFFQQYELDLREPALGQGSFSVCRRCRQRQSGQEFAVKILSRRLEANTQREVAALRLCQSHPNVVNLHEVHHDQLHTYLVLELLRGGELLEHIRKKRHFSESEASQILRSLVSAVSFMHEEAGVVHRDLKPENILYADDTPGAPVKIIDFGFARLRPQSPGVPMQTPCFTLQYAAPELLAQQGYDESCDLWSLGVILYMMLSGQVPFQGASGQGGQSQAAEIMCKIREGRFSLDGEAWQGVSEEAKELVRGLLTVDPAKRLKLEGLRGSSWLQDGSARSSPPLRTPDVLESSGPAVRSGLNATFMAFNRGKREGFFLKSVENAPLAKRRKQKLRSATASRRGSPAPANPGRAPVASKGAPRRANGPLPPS
Sequence of kinases (KINOMEscan panel) (Homo sapiens, UniProt Q8TD08) (Q8TD08 whole entry): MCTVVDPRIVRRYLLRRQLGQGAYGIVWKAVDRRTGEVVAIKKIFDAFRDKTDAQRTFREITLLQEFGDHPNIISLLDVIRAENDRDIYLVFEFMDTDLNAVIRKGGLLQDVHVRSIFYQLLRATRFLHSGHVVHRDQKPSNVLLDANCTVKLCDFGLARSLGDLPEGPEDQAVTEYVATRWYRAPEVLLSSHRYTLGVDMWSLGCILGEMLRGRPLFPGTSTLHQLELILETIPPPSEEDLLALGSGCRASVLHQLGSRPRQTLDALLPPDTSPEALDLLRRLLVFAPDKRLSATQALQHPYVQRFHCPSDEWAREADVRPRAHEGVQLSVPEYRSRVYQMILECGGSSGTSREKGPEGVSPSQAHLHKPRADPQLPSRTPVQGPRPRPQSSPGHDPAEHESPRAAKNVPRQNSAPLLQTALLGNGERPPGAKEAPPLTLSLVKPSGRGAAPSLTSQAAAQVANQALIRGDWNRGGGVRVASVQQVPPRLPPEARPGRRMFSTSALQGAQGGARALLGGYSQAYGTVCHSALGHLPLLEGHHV
Sequence of kinases (KINOMEscan panel) (Homo sapiens, UniProt P48729) (P48729 whole entry): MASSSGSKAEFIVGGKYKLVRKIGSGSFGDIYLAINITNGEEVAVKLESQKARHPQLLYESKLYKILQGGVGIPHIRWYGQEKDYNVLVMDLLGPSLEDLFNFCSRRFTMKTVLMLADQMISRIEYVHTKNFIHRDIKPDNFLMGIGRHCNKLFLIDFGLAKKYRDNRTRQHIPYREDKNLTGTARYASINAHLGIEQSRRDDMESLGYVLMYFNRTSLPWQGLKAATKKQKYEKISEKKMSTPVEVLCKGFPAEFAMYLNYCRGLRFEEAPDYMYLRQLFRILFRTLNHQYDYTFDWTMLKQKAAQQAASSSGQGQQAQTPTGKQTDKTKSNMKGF
Sequence of kinases (KINOMEscan panel) (Homo sapiens, UniProt Q05397) (Q05397 whole entry): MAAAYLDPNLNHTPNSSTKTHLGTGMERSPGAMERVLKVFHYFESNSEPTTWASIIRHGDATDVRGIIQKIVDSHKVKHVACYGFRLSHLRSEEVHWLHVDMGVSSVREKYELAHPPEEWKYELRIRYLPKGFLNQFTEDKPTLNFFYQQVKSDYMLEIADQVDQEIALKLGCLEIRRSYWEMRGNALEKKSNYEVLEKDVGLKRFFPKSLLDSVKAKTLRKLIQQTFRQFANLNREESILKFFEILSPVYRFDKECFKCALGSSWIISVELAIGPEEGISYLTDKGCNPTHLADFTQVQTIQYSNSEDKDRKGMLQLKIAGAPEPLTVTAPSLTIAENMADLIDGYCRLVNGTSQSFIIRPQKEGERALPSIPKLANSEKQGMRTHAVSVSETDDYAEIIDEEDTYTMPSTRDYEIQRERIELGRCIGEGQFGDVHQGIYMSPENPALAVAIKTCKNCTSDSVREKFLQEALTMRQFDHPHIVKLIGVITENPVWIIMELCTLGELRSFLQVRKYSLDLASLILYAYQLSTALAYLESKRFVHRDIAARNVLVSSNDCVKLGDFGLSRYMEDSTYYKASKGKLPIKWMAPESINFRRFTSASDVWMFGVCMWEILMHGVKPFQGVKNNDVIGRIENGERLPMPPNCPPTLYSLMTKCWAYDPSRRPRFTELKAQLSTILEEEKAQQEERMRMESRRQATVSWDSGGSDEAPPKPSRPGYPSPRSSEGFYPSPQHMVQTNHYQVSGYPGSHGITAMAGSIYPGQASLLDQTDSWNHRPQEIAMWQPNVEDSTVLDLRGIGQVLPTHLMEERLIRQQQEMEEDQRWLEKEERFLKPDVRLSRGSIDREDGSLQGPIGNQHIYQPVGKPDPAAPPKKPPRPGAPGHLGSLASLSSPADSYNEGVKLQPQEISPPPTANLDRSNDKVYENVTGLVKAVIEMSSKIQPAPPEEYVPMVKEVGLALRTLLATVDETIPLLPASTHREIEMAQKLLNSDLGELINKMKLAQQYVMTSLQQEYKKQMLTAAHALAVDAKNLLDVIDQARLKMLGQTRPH
Sequence of kinases (KINOMEscan panel) (Homo sapiens, UniProt Q9P289) (Q9P289 whole entry): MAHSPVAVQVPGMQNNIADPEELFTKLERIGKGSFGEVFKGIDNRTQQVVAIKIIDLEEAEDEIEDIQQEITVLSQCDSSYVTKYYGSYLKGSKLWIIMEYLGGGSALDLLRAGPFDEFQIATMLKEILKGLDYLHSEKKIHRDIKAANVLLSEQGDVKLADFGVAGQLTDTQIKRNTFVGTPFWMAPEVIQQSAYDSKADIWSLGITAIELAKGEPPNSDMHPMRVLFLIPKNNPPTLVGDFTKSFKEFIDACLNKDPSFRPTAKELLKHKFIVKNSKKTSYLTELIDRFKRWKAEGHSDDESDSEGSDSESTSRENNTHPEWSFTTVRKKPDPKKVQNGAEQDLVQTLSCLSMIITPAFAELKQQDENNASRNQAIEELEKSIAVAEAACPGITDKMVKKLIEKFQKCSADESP
Sequence of kinases (KINOMEscan panel) (Homo sapiens, UniProt P45983) (P45983 whole entry): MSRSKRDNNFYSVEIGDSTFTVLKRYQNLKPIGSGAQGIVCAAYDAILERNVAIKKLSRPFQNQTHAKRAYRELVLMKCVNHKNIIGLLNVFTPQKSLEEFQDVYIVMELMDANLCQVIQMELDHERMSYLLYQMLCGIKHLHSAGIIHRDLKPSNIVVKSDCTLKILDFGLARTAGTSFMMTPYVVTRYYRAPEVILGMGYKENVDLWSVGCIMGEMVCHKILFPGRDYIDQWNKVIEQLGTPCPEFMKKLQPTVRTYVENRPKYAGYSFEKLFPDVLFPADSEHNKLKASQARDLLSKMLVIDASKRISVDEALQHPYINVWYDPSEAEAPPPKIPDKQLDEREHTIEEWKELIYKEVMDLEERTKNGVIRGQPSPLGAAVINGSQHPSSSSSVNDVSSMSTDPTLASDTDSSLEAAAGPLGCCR
Sequence of kinases (KINOMEscan panel) (Homo sapiens, UniProt Q13188) (Q13188 whole entry): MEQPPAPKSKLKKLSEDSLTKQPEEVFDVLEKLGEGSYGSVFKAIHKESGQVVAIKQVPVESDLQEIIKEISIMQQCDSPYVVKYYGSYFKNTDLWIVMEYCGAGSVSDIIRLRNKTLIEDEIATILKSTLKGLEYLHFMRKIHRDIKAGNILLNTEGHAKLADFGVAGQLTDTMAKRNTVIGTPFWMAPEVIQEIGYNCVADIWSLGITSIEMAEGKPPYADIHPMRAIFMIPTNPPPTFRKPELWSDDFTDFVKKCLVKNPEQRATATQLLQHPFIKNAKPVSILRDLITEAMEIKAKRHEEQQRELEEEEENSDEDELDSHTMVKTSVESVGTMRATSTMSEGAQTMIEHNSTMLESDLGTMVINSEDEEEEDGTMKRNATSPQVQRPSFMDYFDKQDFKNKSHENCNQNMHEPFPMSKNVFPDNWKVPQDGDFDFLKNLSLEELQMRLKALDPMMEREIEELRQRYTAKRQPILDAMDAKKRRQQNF
Sequence of kinases (KINOMEscan panel) (Homo sapiens, UniProt P42679) (P42679 whole entry): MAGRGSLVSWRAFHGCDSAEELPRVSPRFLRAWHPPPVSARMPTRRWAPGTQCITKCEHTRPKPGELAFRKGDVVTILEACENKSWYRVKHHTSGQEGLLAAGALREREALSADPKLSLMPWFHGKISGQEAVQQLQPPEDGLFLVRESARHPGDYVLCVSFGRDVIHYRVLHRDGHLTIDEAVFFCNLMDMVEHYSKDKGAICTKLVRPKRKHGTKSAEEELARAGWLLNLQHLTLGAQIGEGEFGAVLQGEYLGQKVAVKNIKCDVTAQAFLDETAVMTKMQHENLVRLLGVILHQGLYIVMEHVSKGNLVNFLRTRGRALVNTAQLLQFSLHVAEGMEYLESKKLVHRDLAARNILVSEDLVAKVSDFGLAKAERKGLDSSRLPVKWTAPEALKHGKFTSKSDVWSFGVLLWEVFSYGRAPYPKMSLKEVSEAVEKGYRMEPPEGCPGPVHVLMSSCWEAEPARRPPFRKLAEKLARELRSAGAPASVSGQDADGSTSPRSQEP

SMILES	KINOMEscan PIP5K1A [1]	KINOMEscan CSNK1G2 [2]	KINOMEscan CSNK1A1 [3]	KINOMEscan TYRO3 [4]	pKd (PRKD1)	KINOMEscan MATK/CTK [5]	KINOMEscan RPS6KA4(Kin.Dom.1-N-terminal) ([6]; RPS6KA4(Kin.Dom.1-N-terminal))	KINOMEscan RPS6KA4(Kin.Dom.2-C-terminal) ([6]; RPS6KA4(Kin.Dom.2-C-terminal))	KINOMEscan MYLK/MLCK [7]	KINOMEscan STK3/MST2 [8]	KINOMEscan STK26/MST4 [9]	KINOMEscan PTK2/FAK [10]	KINOMEscan MAP3K12/DLK [11]	KINOMEscan MAPK8/JNK1 [12]	KINOMEscan MAPK15/ERK8 [13]	KINOMEscan NIM1K/NIM1 [14]
Cc1cccc(-c2nc(Nc3ccncc3)c3ccccc3n2)n1 [NK215]	10	20	46	0	7.89	–	–	–	–	–	–	–	–	–	–	–
Cc1cccc(-c2nc(N(C)c3ccc4ncsc4c3)c3ccccc3n2)n1 [NK-161]	–	–	–	–	–	8	0	0	8	0	5	0	0	0	0	12
